Measurements published in patent US7964613B2 (Asahi Kasei Pharma Corporation, priority 2007, dated 2011).

Assays:
[1] = tested on: rabbit normal intraocular pressure; assay: Intraocular pressure reducing action; format: in vivo, Japanese white rabbit; conditions: Oryctolagus cuniculus, topical, read-out: intraocular pressure reducing degree; for inhibition in vivo at 3000 µM: 3 mM aqueous solution, 50 μl to the left eye, max IOP reduction (2, 4, 6 hours) / value immediately before administration; for inhibition in vivo at 1000 µM: test compound of 1 mM, same test as Test Example 3
In short: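 Japanese white rabbits (~2 kg) under topical anaesthesia received 50 μl of a 3 mM aqueous test solution in the left eye, right eye untreated. IOP read by tonometer before and at 2, 4, 6 h; maximal left–right difference divided by pre-dose IOP ×100 gives % reduction.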

TNF-α production = assay: Inhibitory effect on TNF-α production in mice (LPS); format: in vivo, BALB/c mice; conditions: Mus musculus, 1.5 h; oral administration of 30 mg/kg, LPS 5 μg i.p. 60 minutes later, plasma after 90 minutes; read-out: TNF-α production suppressing action
[2] = tested on: mouse neuroblastoma cell strain N1E-115; assay: Inhibitory effect on neurite retraction (LPA-induced); format: cell-based; conditions: mouse/rat NG108-15; 10 μM compound, 1 μM LPA, N1E-115 cells
Method: An experiment for Inhibitory effect on neurite retraction using mouse neuroblastoma cell strain N1E-115 was performed according to the method of Hirose, M. et al. (J. Cell. Biol., 141, pp. 1625-1636 (1998)). This method utilizes the fact that LPA (lysophosphatidic acid), which is a endogenous substance, induces neurite retraction, and is a method of evaluating how much a drug can inhibit the LPA-induced neurite retraction and thereby evaluating potency of inhibition of neuronal degeneration and potency of neuronal regeneration of the drug. N1E-115 cells cultured in a DMEM solution containing 20% heat-inactivated fetal bovine serum were plated on a 6-well plate (IWAKI) at a density of 40,000 cells/well, and cultured overnight at 37° C. in the same culture medium in a 5% CO2 incubator. In order to induce differentiation of the N1E 115 cells into nerve cells, the culture medium was changed to the serum-free DMEM solution, and the cells were cultured for 1 or 2 days at 37° C. in the 5% CO2 incubator until most of the cells extended the neurites. On the examination day, each compound of the present invention was added at a final concentration of 10 μM, incubation was performed for 30 minutes, then LPA (Sigma) was added at a final concentration of 1 μM, and incubation was further performed for 10 minutes. To the control, the same volume of phosphate buffered saline as the solvent was added. After completion of the incubation, glutaraldehyde was added at a final concentration of 5% to fix the cells. […] The inhibition rate (%) of each drug was calculated by using the following equation. Inhibition rate(%)=100−(RCP obtained with drug to be evaluated−RCP of control)/(RCP obtained with LPA−RCP of control)×100

[3] = tested on: rat spinal canal stenosis (cauda equina compression-induced walking dysfunction) model; assay: Rat spinal canal stenosis model, walking ability test; format: in vivo; conditions: treadmill; for walk distance compared with the solvent repetitive administration group: 14th day of repetitive administration; for Inventive compound repetitive administration group (average distance (m)): 14th day of repetitive administration started 4th day after operation, 7 or 8 animals
Excerpt: A rat spinal canal stenosis (cauda equina compression-induced walking dysfunction) model can be prepared according to the method of Nakai, K et al. (Anesth. Analg., 94, pp. 1537-1541 (2002)) or the like. Namely, a rat is anesthetized with pentobarbital sodium, shaved on the back, and fixed in the abdominal position. After disinfection on the back with Isodine Surgical Scrub (Meiji Seika), a lumbar part is cut open along the median to expose the spine. Then, a silicone rubber of 1×4×1.5 mm (height×length×width) is inserted into the fifth lumbar vertebral canal from a small hole on the vertebral arch. Benzylpenicillin potassium (Crystalline Penicillin G Potassium Meiji, Meiji Seika) is dropped on the opened lesion and intramuscularly injected in the femoral region for the purpose of evasion of infectious diseases. The muscles and skin of the opened lesion are sutured with a ligature, and Isodine Surgical Scrub is applied to the sutured portion. Animals of sham group are also prepared according to the aforementioned method, provided that silicone rubber is not inserted.
In walking ability test, evaluation is performed by using a treadmill (Muromachi Kikai). A rat is placed on a traveling belt, adapted to the environment more than 3 minutes under a grid-electrified condition (0.04 to 4 mA), and then made to start walking from a velocity of 10 m/min, and then the velocity is increased by 5 m/min every 3 minutes. The walk is stopped, and electrical stimulation (0.04 to 4 mA) is applied to the rat which has moved to the grid for electrical stimulation provided before the traveling belt. Distance which the animal walked after the animal started the walk until the animal became unable to walk, i.e., the animal came not to walk even if a stimulation (sound, contact, electricity) was added to the animal to urge it to walk, was calculated from the walking time. Before the operation, the walking function test is carried out 3 times to perform training of walk. From the 4th day after the operation, repetitive administration of each compound of the present invention as a test compound was started, and the walking ability test was performed on the 14th day of the administration for the measurement.
Each group consisted of 7 or 8 animals, and the average distance before the administration was the average for the animals of both groups. […] It was confirmed that the compounds of the present invention were useful as medicaments for therapeutic treatment of a disease accompanied by walking dysfunction such as spinal canal stenosis.

Row | SMILES | inhibition in vivo at 3000 µM [1] [%] | inhibition in vivo at 30 mg/kg (TNF-α production) [%] | inhibition at 10 µM [2] [%] | walk distance compared with the solvent repetitive administration group [3] | Inventive compound repetitive administration group (average distance (m)) [3] [m] | inhibition in vivo at 1000 µM [1] [%]
1 | CN[C@H]1CCN(S(=O)(=O)c2cccc3c(O)ncc(Cl)c23)C1 [Example 36-1, (S)-1-(1-Hydroxy-4-chloro-5-isoquinolinesulfonyl)-3-(methylamino)pyrrolidine] | 10 to 20 | ≥ 50 | ≥ 50 | extended the walk distance | 298 | –
2 | CN[C@H]1CCN(S(=O)(=O)c2cccc3cncc(C)c23)C1 [Example 8-3] | ≥ 20 | ≥ 50 | ≥ 50 | extended the walk distance | 224 | ≥ 20
3 | CN[C@H]1CCN(S(=O)(=O)c2cccc3cncc(Cl)c23)C1 [Example 19-3, (S)-1-(4-Chloro-5-isoquinolinesulfonyl)-3-(methylamino)pyrrolidine] | ≥ 20 | ≥ 50 | ≥ 50 | extended the walk distance | 285 | ≥ 20
4 | N[C@H]1CCN(S(=O)(=O)c2cccc3cncc(Cl)c23)C1 [Example 19-1, (S)-3-Amino-1-(4-chloro-5-isoquinolinesulfonyl)pyrrolidine] | ≥ 20 | ≥ 50 | ≥ 50 | – | – | –
